Results on three compounds are retold here after PMC11984268 (BMC Cancer, 2025).

Data set [1] in a line: Plasma pharmacokinetics by HPLC-MS/MS. Format: in vivo, human. The conditions noted are these: for concentration at 24 h: read-out: Cmin 24h. As to the method: Plasma samples were collected pre-dose and 1, 2, 4, 6, 8, 10 and 24 h after the dose on C1/D21. PK trough samples (pre-dose; 2 h post-dose) were obtained on day 21 of cycles 2, 4, 6, 8, 10 and 12.
A further data set deals with pMEK1/2. Nature of the data set: pMEK1/2 in paired skin biopsies, Western blotting/densitometry. Format: in vivo, human. The settings on record: dose escalation, cohort 7, 12 and 13, C1D15. As to the method: (§1) All patients in the dose escalation phase consented to a fresh frozen punch skin biopsy during screening and on C1/D15 (± 7 days). Fresh frozen skin and tumour biopsies during screening and on C1/D15 (± 7 days) were also required for the first 13 patients in the dose expansion phase. PD markers of MEK1/2 inhibition (pMEK1/2; pERK1/2) in skin biopsies and MET inhibition (pSTAT3) in tumour biopsy were assessed by Western blotting (WB), as previously described. Densitometry on WB images was performed using ImageJ software.
In general terms: Immunoblotting shows a protein as a band on a membrane.

The conditions of data set [2]: in vivo; cited from earlier work.
How the values of data set [3] were obtained: A rolling-six design was employed.
Safety assessments, ophthalmic/cardiac examinations were performed as previously described. […] Anti-tumour activity was conducted at baseline (within 28 days prior to C1/day 1 (D1)) and then every 2 cycles and evaluated by RECIST v1.1.
Safety and efficacy data were summarised using descriptive statistics. Evaluable patients for toxicity were those patients that received at least one dose of one or both drugs. Evaluable patients for MTD or dose escalation were those patients who completed C1 or withdrew early for experiencing a DLT. Response analyses (RECIST v1.1) were performed on an intention-to-treat basis, and any patient who received any dose of study treatment was evaluable for response. PFS was defined as the time between receiving the first dose of study medication to disease progression or death from any cause. OS was defined as the time between C1D1 to death from any cause. PFS and OS were estimated using the Kaplan–Meier method. Statistical significance was calculated from distinct technical replicates by Student’s t-test (2-tailed, 2 sample equal variance on unpaired data), in GraphPad Prism 8. Graphs were plotted as means with error bars represented as SD; statistical significance was denoted as follows: *** = p < 0.001, ** = p < 0.01, * = p < 0.05, ns = p > 0.05.
The source holds these as a separate data set.

Another data set concerns pMET^Y1003. Put plainly: pMET Y1003 in paired tumour biopsies, Western blotting. The class given is in vivo, human. The settings on record: one patient with paired biopsy, dose expansion, C1D15.
The next data set relates to pSTAT3^Y705. Put plainly: pSTAT3 Y705 in paired tumour biopsies, Western blotting. Format: in vivo, human. The conditions noted are these: one patient with paired biopsy, dose expansion, C1D15. As to the method: as §1
For another data set, the system named is cMET. The settings on record: cited from earlier work.
For data set [4] the following is noted: patients with advanced solid cancers; cited from earlier work.
Where [5] appears, read: Cycle 1, Day 21, Cohort 7: binimetinib 30mg B.D 28d, crizotinib 200mg B.D, n = 7.
[6] abbreviates: Cycle 1, Day 21, Cohort 12: binimetinib 30mg B.D 21d, crizotinib 200mg B.D, n = 5.
Where [7] appears, read: Cycle 1, Day 21, Cohort 13: binimetinib 30mg B.D 21d, crizotinib 250mg O.D, n = 6.
Setting [8] is: Cycle 1, Day 21, Dose expansion phase: binimetinib 30mg B.D 21d, crizotinib 250mg O.D, n = 26.
The mark [9] stands for this setting: human, plasma, dose escalation phase, 3 cohorts, oral, read-out: time of peak plasma concentrations after dosing.

Where two headings read alike, the source gives them in different places.

Consider `O=C(NOCCO)c1cc2[nH]cnc2c(F)c1Nc1ccc(Br)cc1F` [AR0042603], for which, in data set [1] (setting [5]), the AUC0-10h is reported as 203 (112) ng*h/ml (SD), the Cmax is listed as 25.1 (15.1) ng/ml (SD), the Cmin was 10.4 (2.66) ng/ml (SD) and the Tmax was 3.03 (1.97) h (SD). In data set [1] (setting [6]), the AUC0-10h is given as 183 (24.8) ng*h/ml (SD), the Cmax is 29.5 (8.62) ng/ml (SD), the Cmin is recorded as 10.2 (2.47) ng/ml (SD) and the Tmax is 1.75 (0.5) h (SD). Besides, in data set [1] (setting [7]), the AUC0-10h is on record as 121 (28.9) ng*h/ml (SD), the Cmax is reported as 23.4 (8.04) ng/ml (SD), the Cmin is 6.95 (1.6) ng/ml (SD) and the Tmax was 1.84 (1.16) h (SD). Further, in [1] (setting [8]), the AUC0-10h is 194 (85.2) ng*h/ml (SD), the Cmax was 22.7 (16.0) ng/ml (SD), the Cmin was 12.1 (4.8) ng/ml (SD) and the Tmax was 3.15 (1.99) h (SD).

In the case of `Cn1cnc2c(F)c(Nc3ccc(Br)cc3F)c(C(=O)NOCCO)cc21` [binimetinib], in [1] (setting [5]), the AUC0-10h is on record as 1604 (554) ng*h/ml (SD), the Cmax is 265 (83.4) ng/ml (SD), the Cmin is 77.1 (40.3) ng/ml (SD) and the Tmax was 2.26 (2.14) h (SD). In [1] (setting [6]), the AUC0-10h is 1780 (706) ng*h/ml (SD), the Cmax is 386 (189) ng/ml (SD), the Cmin is reported as 85.8 (51.9) ng/ml (SD) and the Tmax is on record as 1.75 (0.5) h (SD). In data set [1] (setting [7]), the AUC0-10h was 1402 (666) ng*h/ml (SD), the Cmax is listed as 320 (136) ng/ml (SD), the Cmin is 64.0 (28.9) ng/ml (SD) and the Tmax is given as 1.51 (0.54) h (SD). For the same compound, in data set [1] (setting [8]), the AUC0-10h is on record as 2129 (1152) ng*h/ml (SD), the Cmax is reported as 357 (171) ng/ml (SD), the Cmin is 103 (58.5) ng/ml (SD) and the Tmax is 2.55 (1.5) h (SD). Besides, in data set [1] (setting [9]), the Tmax was in the range of 0.98 to 6 h. Besides, the “pMEK1/2 (catalytically-inactive) in skin biopsies, post- vs pre-treatment” value in the data set on pMEK1/2 is given as “significant accumulation”. The “MTD (binimetinib dose in the combination)” value (days 1–21 every 28 days, with crizotinib 250 mg O.D continuously) was found to be 30 mg B.D. Also, in data set [2], the RP2D is 45 mg B.D and the “doses achieving plasma concentrations required to inhibit pERK1/2” value was at least 30 mg B.D.

`C[C@@H](Oc1cc(-c2cnn(C3CCNCC3)c2)cnc1N)c1c(Cl)ccc(F)c1Cl` [crizotinib]: the “DR-AE determined to be related to the drug” value is 164 in [3] (dose escalation phase, of 210 DR-AE) and 244 in [3] (dose expansion phase, of 297 DR-AE). The AUC0-10h in data set [1] (setting [5]) is given as 2481 (980) ng*h/ml (SD); in data set [1] (setting [6]), 2119 (1341) ng*h/ml (SD); in data set [1] (setting [7]) it was 1467 (410) ng*h/ml (SD); in [1] (setting [8]), 1647 (907) ng*h/ml (SD). The Cmin was 205 (78.0) ng/ml (SD) in data set [1] (setting [5]), 181 (136) ng/ml (SD) in data set [1] (setting [6]), 114 (43.1) ng/ml (SD) in [1] (setting [7]) and 149 (85.3) ng/ml (SD) in data set [1] (setting [8]). The values for the AUC0-24h in data set [1] (setting [7]) and in data set [1] (setting [8]) were 2529 (380) ng*h/ml (SD) and 3479 (2083) ng*h/ml (SD), respectively. The “median trough plasma concentrations” value in data set [1] (cohort 13, crizotinib 250 mg O.D) is on record as over 62 ng/mL. Further, the concentration at 24 h in [1] (human, plasma, oral, Cycle 1, Day 21, Cohort 13: binimetinib 30mg B.D 21d, crizotinib 250mg O.D, n = 6) amounted to 72.6 ng/mL; in [1] (human, plasma, oral, Cycle 1, Day 21, Dose expansion phase: binimetinib 30mg B.D 21d, crizotinib 250mg O.D, n = 26), 109 ng/mL. The Tmax in data set [1] (setting [9]) lay within 0.97 to 6 h. Also, the “pMET Y1003 levels in tumour during treatment” value in the data set with pMET^Y1003 was “increased”. Further, the “pSTAT3 Y705 levels in tumour during treatment” value with pSTAT3^Y705 was “decreases”. In addition, the “MTD (crizotinib dose in the combination)” value (continuously, with binimetinib 30 mg B.D days 1–21 every 28 days) came to 250 mg O.D. Also, the “pre-clinically predicted effective concentration to inhibit cMET” value with cMET is listed as 62 ng/mL. The “maximum-tolerated dose (MTD) of crizotinib with PD- 0325901” value in data set [4] was 200 mg B.D.
